Measured values published in patent US20120220482A1, “COMPOSITIONS AND METHODS FOR SCREENING PEPTOID LIBRARIES” (The Board of Regents of the University of Texas System, priority 2011, published 2012).
Square brackets hold non-standard residues; d marks the D form. Peptide text beside a SMILES is read from it. * marks the point of attachment. N(4-Sulfamoylphenethyl)Gly = NS(=O)(=O)c1ccc(CCNCC(=O)O)cc1; Gly(N-piperonyl) = O=C(O)CNCc1ccc2c(c1)OCO2; hSer(lactone) = O=C1OCC[C@@H]1N*; NFurfurylGly = O=C(O)CNCc1ccco1; NAllylGly = C=CCNCC(=O)O

Columns and labels:
[1] = molecular target: M2 monoclonal anti-flag antibody; experiment: Microarray binding of spotted hits titrated with anti-FLAG antibody; design: species or system mouse; conditions: for Kd: apparent KD from microarray binding curves with decreasing anti-FLAG antibody concentrations, NA = spot not bound by anti-FLAG antibody
Description: (§1) A total of 16 copies of each array of 100 compounds (the hits and various controls) were spotted onto each microscope slide. Each array, isolated by applying a Whatman Fast Frame to the slide, was then incubated for 2 hr with either anti-Myc antibody or various concentrations of anti-FLAG antibody. After washing, the amount of antibody captured at each spot was quantified by subsequent hybridization with fluorescently labeled secondary antibody, another wash, drying, and scanning. […] No binding of the anti-FLAG antibody to the Myc peptide was observed, nor was binding of the anti-Myc antibody to any of the hits or the FLAG peptide.
Microarray Spotting, Hybridization, and Data Analysis. Contents of the 384-well plates were printed onto maleimide-coated glass slides with a NanoPrint LM 360 (TeleChem International Inc., Sunnyvale, Calif.) with MP946 Micro Spotting Pins. A 10% ethanol (EM-AX007309; Midwest Grain Products) and water mixture was used to wash the pins before printing and after spotting of each compound. Multiple wash/sonicate/dry cycles were used between each sample pick-up and print cycle. Spots were printed on the slide to fit within the wells of a 16-well Whatman Fast Frame (Whatman no. 10486003), which allows 16 isolated hybridization events on a single slide. Slides were left in 50% humidity for 12 hr […]. After printing, the humidifier was turned off and the slides were left for at least 12 hr before free maleimide groups were blocked with 2% β-mercaptoethanol in DMF for 1 hr by placing the slides in glass slide holders inside of glass containers on a shaker in the chemical hood. Slides were washed sequentially with DMF for 30 min, tetrahydrofuran for 30 min, DMF for 30 min, acetonitrile thrice for 20 min, isopropanol thrice for 20 min, 13 TBST once for 20 min, then 0.13 TBST once for 20 min. Washed slides were spun dry for 5 min at 2000 rpm.
Dry slides were placed inside the Whatman Fast Frame following the provided instructions, and each of the 16 wells per slide was blocked with 100 μl of StartingBlock (Fisher) for 1 hr at RT with a multichannel pipetteman. Wells were drained and washed once with […] TBST. TBST was drained one well at a time before adding 100 μl of appropriate concentrations of protein(s) diluted in 1:1 TBST:StartingBlock. The FastFrame was placed on wet paper towels inside of a glass cake pan, which was sealed with Glad Press'n Seal and placed on an orbital shaker for 2-4 hr at RT. Each well was washed with TBST six times before adding 4 μg/ml Alexa647 goat anti-mouse IgG secondary antibodies diluted in 1:1 TBST:StartingBlock for 1 hr at RT. Slides were washed five times for 3 min with 13 TBST, then once with 0.13 TBST, spun dry at 2000 rpm, then scanned using a GenePix Autoloader 4200AL Scanner (Molecular Devices, Sunnyvale Calif.). Slides were scanned with a power of 1003 and photomultiplier tube setting of 5003-6003. Gal files were created and used to determine fluorescence intensity of each of the spots with GenePixPro6.0. Gal files were aligned manually, then automatic spotfinding followed by manual correction of spots performed for each of the scanned slides. GPR files were created and median fluorescence-background fluorescence values for each of the spots were cut and pasted in Excel and arranged (using simple macros) to simplify transferring results to GraphPad Prism 5.0 software for binding curve analyses.

[2] = test system: anti-Myc antibody; experiment: Microarray hybridization of spotted compounds with anti-Myc antibody; assay type: binding; conditions: fluorescently labeled secondary antibody
Description: as §1
Microarray Spotting, Hybridization, and Data Analysis. […]
Dry slides were placed inside the Whatman Fast Frame following the provided instructions, and each of the 16 wells per slide was blocked with 100 μl of StartingBlock (Fisher) for 1 hr at RT with a multichannel pipetteman. […] Gal files were created and used to determine fluorescence intensity of each of the spots with GenePixPro6.0. […] GPR files were created and median fluorescence-background fluorescence values for each of the spots were cut and pasted in Excel and arranged (using simple macros) to simplify transferring results to GraphPad Prism 5.0 software for binding curve analyses.

[3] = test system: anti-FLAG antibody; experiment: Competition experiment: anti-FLAG antibody pre-incubated with excess soluble peptide before hybridization to the array; assay type: binding, mouse; conditions: antibody first incubated with excess peptide
Description: To address if the higher affinity hits bind to anti-FLAG antibody in the antigen-binding site, the inventors carried out a competition experiment in which the anti-FLAG antibody was first incubated with an excess of FLAG peptide or, as a control, the Myc peptide, before hybridization to the array.

Row | Kd [1] | Compound | also measured
1 | 5 nM | NCCCC[C@@H](N)C(=O)N[C@H](Cc1ccc(O)cc1)C(=O)N[C@H](CC(=O)O)C(=O)N(CCc1ccc(S(N)(=O)=O)cc1)CC(=O)N(CCc1ccc(S(N)(=O)=O)cc1)CC(=O)N[C@H](CC(=O)O)C(=O)N(CC(=O)N[C@H]1CCOC1=O)Cc1ccco1 [Spot H2] (H-[dK][dY][dD][N(4-Sulfamoylphenethyl)Gly][N(4-Sulfamoylphenethyl)Gly][dD][NFurfurylGly]-{hSer(lactone)}) | 
2 | 6 nM | NCCCC[C@@H](N)C(=O)N[C@H](Cc1ccc(O)cc1)C(=O)N[C@H](CCC(=O)O)C(=O)N[C@H](Cc1ccc(O)cc1)C(=O)N[C@H](CCC(=O)O)C(=O)N[C@H](Cc1ccc(O)cc1)C(=O)N(CC(=O)N[C@H]1CCOC1=O)Cc1ccco1 [Spot H1] (H-[dK][dY][dE][dY][dE][dY][NFurfurylGly]-{hSer(lactone)}; C-terminus assumed) | 
3 | 11 nM | NCCCC[C@@H](N)C(=O)N[C@H](Cc1ccc(O)cc1)C(=O)N[C@H](CC(=O)O)C(=O)N[C@H](Cc1c[nH]c2ccccc12)C(=O)N[C@H](CCC(=O)O)C(=O)NCC(=O)N(CC(=O)N[C@H]1CCOC1=O)Cc1ccco1 [Spot H6] (H-[dK][dY][dD][dW][dE]G[NFurfurylGly]-{hSer(lactone)}; C-terminus assumed) | 
4 | 9 nM | NCCCC[C@@H](N)C(=O)N[C@H](Cc1ccc(O)cc1)C(=O)N[C@H](Cc1ccc(O)cc1)C(=O)N[C@H](CCC(=O)O)C(=O)N[C@H](CC(N)=O)C(=O)N(CC(=O)N(CC(=O)N[C@H]1CCOC1=O)Cc1ccco1)Cc1ccc2c(c1)OCO2 [Spot H7] (H-[dK][dY][dY][dE][dN][Gly(N-piperonyl)][NFurfurylGly]-{hSer(lactone)}) | 
5 | 2 nM | NCCCC[C@@H](NC(=O)[C@@H](CC(=O)O)NC(=O)[C@H](N)Cc1c[nH]c2ccccc12)C(=O)N[C@H](Cc1ccc(O)cc1)C(=O)N[C@H](Cc1c[nH]cn1)C(=O)N(CCc1ccc(S(N)(=O)=O)cc1)CC(=O)N(CC(=O)N[C@H]1CCOC1=O)Cc1ccco1 [Spot H8] (H-[dW][dD][dK][dY][dH][N(4-Sulfamoylphenethyl)Gly][NFurfurylGly]-{hSer(lactone)}) | 

Second part, the compound before the results:

Row | Compound | Kd [1] | also measured
6 | CC(C)C[C@@H](N)C(=O)N[C@H](CC(=O)O)C(=O)N[C@H](CCCCN)C(=O)N[C@H](Cc1ccc(O)cc1)C(=O)N[C@H](CCC(=O)O)C(=O)N[C@H](Cc1c[nH]c2ccccc12)C(=O)N(CC(=O)N[C@H]1CCOC1=O)Cc1ccco1 [Spot B7] (H-[dL][dD][dK][dY][dE][dW][NFurfurylGly]-{hSer(lactone)}; C-terminus assumed) | 6 nM | 
7 | C[C@@H](NC(=O)[C@@H](Cc1ccc(O)cc1)NC(=O)[C@@H](CCCCN)NC(=O)[C@@H](Cc1ccccc1)NC(=O)[C@H](N)CC(=O)O)C(=O)N[C@H](CCC(=O)O)C(=O)N(CC(=O)N[C@H]1CCOC1=O)Cc1ccco1 [Spot E8] (H-[dD][dF][dK][dY][dA][dE][NFurfurylGly]-{hSer(lactone)}; C-terminus assumed) | 9 nM | 
8 | C[C@@H](NC(=O)[C@@H](Cc1ccc(O)cc1)NC(=O)[C@@H](CCCCN)NC(=O)[C@H](N)CC(N)=O)C(=O)N[C@H](CC(=O)O)C(=O)N[C@H](CC(=O)O)C(=O)N(CC(=O)N[C@H]1CCOC1=O)Cc1ccco1 [Spot A7] (H-[dN][dK][dY][dA][dD][dD][NFurfurylGly]-{hSer(lactone)}; C-terminus assumed) | 5 nM | 
9 | N-Asp-Tyr-Lys-Asp-Asp-Asp-Asp-Lys-C [FLAG peptide] |  | binding of anti-FLAG antibody to spotted compound ([1]; microarray, fluorescently labeled secondary antibody): binds; binding of anti-Myc antibody to spotted compound [2]: No binding; effect of excess soluble peptide on binding of anti-FLAG antibody to the molecules on the microarray [3]: abrogated binding
10 | C=CCNCC(=O)N[C@@H](C(=O)N[C@H](CCCCN)C(=O)N[C@H](Cc1ccc(O)cc1)C(=O)N[C@H](CC(=O)O)C(=O)N[C@H](CC(=O)O)C(=O)N(CC(=O)N[C@H]1CCOC1=O)Cc1ccco1)[C@H](C)O [Spot B1] (H-[NAllylGly][dT][dK][dY][dD][dD][NFurfurylGly]-{hSer(lactone)}) | 3 nM | 
11 | C=CCN(CC(=O)N(CC(=O)N[C@H]1CCOC1=O)Cc1ccco1)C(=O)[C@@H](CC(=O)O)NC(=O)CNC(=O)CN(Cc1ccc2c(c1)OCO2)C(=O)[C@@H](Cc1ccc(O)cc1)NC(=O)[C@H](N)CCCCN [Spot E4] (H-[dK][dY][Gly(N-piperonyl)]G[dD][NAllylGly][NFurfurylGly]-{hSer(lactone)}) | 8 nM | 
12 | NCCCC[C@@H](NC(=O)[C@H](N)CC(=O)O)C(=O)N[C@H](Cc1ccc(O)cc1)C(=O)N[C@H](Cc1ccccc1)C(=O)N[C@H](CO)C(=O)N(CCc1ccc(S(N)(=O)=O)cc1)CC(=O)N(CC(=O)N[C@H]1CCOC1=O)Cc1ccco1 [Spot B8] (H-[dD][dK][dY][dF][dS][N(4-Sulfamoylphenethyl)Gly][NFurfurylGly]-{hSer(lactone)}) | 9 nM | 
13 | N=C(N)NCCC[C@@H](NC(=O)[C@@H](Cc1ccc(O)cc1)NC(=O)[C@@H](CCCCN)NC(=O)[C@H](N)CCC(=O)O)C(=O)N[C@H](Cc1ccc(O)cc1)C(=O)N[C@H](Cc1c[nH]c2ccccc12)C(=O)N(CC(=O)N[C@H]1CCOC1=O)Cc1ccco1 [Spot B4] (H-[dE][dK][dY][dR][dY][dW][NFurfurylGly]-{hSer(lactone)}; C-terminus assumed) | 7 nM | 
14 | NCCCC[C@@H](NC(=O)[C@@H](CO)NC(=O)[C@H](N)CCC(=O)O)C(=O)N[C@H](Cc1ccc(O)cc1)C(=O)N[C@H](CC(=O)O)C(=O)N[C@H](Cc1ccc(O)cc1)C(=O)N(CC(=O)N[C@H]1CCOC1=O)Cc1ccco1 [Spot B9] (H-[dE][dS][dK][dY][dD][dY][NFurfurylGly]-{hSer(lactone)}; C-terminus assumed) | 2 nM | 
15 | C=CCN(CC(=O)N[C@H](CCC(=O)O)C(=O)N[C@H](CC(C)C)C(=O)N(CC(=O)N[C@H]1CCOC1=O)Cc1ccco1)C(=O)[C@@H](CC(=O)O)NC(=O)[C@@H](Cc1ccc(O)cc1)NC(=O)[C@H](N)CCCCN [Spot H9] (H-[dK][dY][dD][NAllylGly][dE][dL][NFurfurylGly]-{hSer(lactone)}; C-terminus assumed) | 4 nM | 
16 | NCCCC[C@@H](N)C(=O)N[C@H](Cc1ccc(O)cc1)C(=O)N[C@H](Cc1ccc(O)cc1)C(=O)N[C@H](CC(N)=O)C(=O)N[C@H](CC(=O)O)C(=O)N(CC(=O)N(CC(=O)N[C@H]1CCOC1=O)Cc1ccco1)Cc1ccc2c(c1)OCO2 [Spot D5] (H-[dK][dY][dY][dN][dD][Gly(N-piperonyl)][NFurfurylGly]-{hSer(lactone)}) | 7 nM | 
